The values below come from US4529549A, “Spergualin-related compounds and process for the preparation thereof” (Zaidan Hojin Biseibutsu Kagaku Kenkyu Kai, priority 1982, dated 1985).

Molecules are shown by their SMILES. Converted amounts (≈) assume the structure as drawn. Counter-ions that a name gives are not always drawn. Like-named read-outs stand apart in the source and are kept apart here.

The subject of data set [1] is mouse leukemia L1210 cells. Kind of data set: In vitro proliferation-inhibiting action on mouse leukemia L1210 cells. In kind it is cell-based. As to conditions: 48 hours at 37° C. The protocol:
Leukemia L1210 cells (1×10^5 /0.2 ml) were transplanted to female DBA/2 mice intraperitoneally. four days later, the ascitic fluid was collected and centrifuged to obtain proliferated L1210 cells. The L1210 cells collected were added to RPMI1640 medium containing bovine fetal serum and 2-mercaptoethanol, to obtain a suspension of L1210 cells having a final concentration of 5×10^4 cells/0.9 ml. Each of the compounds of this invention was dissolved in said culture medium to prepare solutions with final concentrations ranging from 0.062 to 100 μg/ml. 0.9 ml of the L1210 cell suspension and 0.1 ml of each test solution were mixed in petri dishes, and incubated for 48 hours at 37° C. in an incubator under an atmosphere of carbon dioxide gas. The number of L1210 cells was counted before and after the incubation, and that concentration of the compound which inhibited the proliferation of L1210 cells by 50% of the control's proliferation was determined (IC50).

The test system of data set [2] is Bacillus subtilis PCI219. Kind of data set: Growth-inhibiting action on Bacillus subtilis (agar plate MIC). In kind it is cell-based. As to conditions: nutrient agar, 20 hours at 37° C. The protocol:
Each of the compounds of this invention was dissolved in nutrient agar media to final concentrations of 100, 50, 25, 12.5, 6.25, 3.13 and 1.56 μg/ml, to prepare agar plates for testing. Bacillus subtilis PCI219 was adjusted to a content of 1×10^6 viable cells/ml, in a culture broth, and a loopful of the broth was applied onto the agar plates. The plates were incubated for 20 hours at 37° C. under stationary conditions, and observed for the formation of colonies of Bacillus subtilis. The lowest of the concentrations at which no colonies were formed was taken to be minimum inhibitory concentration (MIC).

Data set [3] in a line: Stability of the compounds in aqueous solutions (HPLC residual content). The class given is physicochemical. As to conditions: for remaining at 12 h / remaining at 24 h / remaining at 48 h / remaining at 72 h / remaining at 120 h / remaining at 168 h: water; for Residual content (%) of the compound in an aqueous solution: 0.5 (w/w)% in water, 40°±1° C., initial content = 100%. How it is done:
Each of the compounds of this invention was dissolved in water to a concentration of 0.5 (w/w)%. The aqueous solution was maintained at 40°±1° C., and sampled at certain time intervals. Each sample was subjected to high-performance liquid chromatographic analysis to measure the area of the peak of the compound at each sampling time, and to calculate the ratio of the area of the peak after the indicated period of time to that at the first sampling time. The results of the calculation were used to determine the contents (%) of the compound of this invention in the aqueous solution after the indicated periods of time, with the initial content of said compound set at 100%.

[4] abbreviates: Bacillus subtilis, PCI219, read-out: MIC.

In the case of `N=C(N)NCCCCCCCCC(=O)N[C@@H](CO)C(=O)NCCCCNCCCN` [Compound 17, 10-[N--(9-guanidinononanoyl)-L-seryl]-1,5,10-triazadecane trihydrochloride], in data set [1], the IC50 turned out to be 11.3 µg/mL. Besides, the MIC in data set [2] (setting [4]) was 6.25 µg/mL. In data set [3], the amount remaining at 12 h is 99.6%, the share remaining at 24 h came to 100%, the share remaining at 48 h amounted to 99.8% and the amount remaining at 72 h was 99.7%. In data set [3], the share remaining at 120 h turned out to be 100% and the share remaining at 168 h worked out at 99.3%.

`N=C(N)NCCCCCCC(=O)NCCCC(=O)NCCCCNCCCN` [Compound 7, 10-[N--(7-guanidinoheptanoyl)-γ-aminobutanoyl]-1,5,10-triazadecane trihydrochloride] had an IC50 in data set [1] of 1.9 µg/mL. Also, in data set [2] (setting [4]), the MIC is 25 µg/mL. Also, in data set [3], the amount remaining at 12 h worked out at 99.9%, the fraction remaining at 24 h was found to be 100%, the amount remaining at 48 h is 99.8% and the fraction remaining at 72 h was 99.9%. Further, in data set [3], the share remaining at 120 h is 100% and the amount remaining at 168 h is 99.8%.

In data set [1], `N=C(N)NCCCCCCC(=O)N[C@@H](Cc1cnc[nH]1)C(=O)NCCCCNCCCN` [Compound 14, 10-[N--(7-guanidinoheptanoyl)-L-histidyl]-1,5,10-triazadecane trihydrochloride] registered an IC50 of 51 µg/mL. Besides, in data set [2] (setting [4]), the MIC turned out to be 50 µg/mL. In data set [3], the amount remaining at 12 h turned out to be 99.1%, the fraction remaining at 24 h is 99%, the fraction remaining at 48 h was found to be 99.6% and the share remaining at 72 h amounted to 99.5%. In data set [3], the share remaining at 120 h was found to be 99.9% and the fraction remaining at 168 h came to 99.6%.

For the molecule `N=C(N)NCCCCCCC(=O)N[C@@H](Cc1ccccc1)C(=O)NCCCCNCCCN` [Compound 13, 10-[N--(7-guanidinoheptanoyl)-L-phenylalanyl]-1,5,10-triazadecane trihydrochloride], in data set [1], the IC50 came out at 2.8 µg/mL. Further, in data set [2] (setting [4]), the MIC was > 100 µg/mL. Also, in data set [3], the fraction remaining at 12 h was found to be 99.8%, the amount remaining at 24 h stood at 99.5%, the amount remaining at 48 h came out at 99.9% and the fraction remaining at 72 h turned out to be 100%. Besides, in data set [3], the amount remaining at 120 h amounted to 101% and the share remaining at 168 h came out at 100%.

The molecule `N=C(N)NCCCCCCC(=O)N[C@H](CO)C(=O)NCCCCNCCCN` [Compound 4, 10-[N--(7-guanidinoheptanoyl)-D-seryl]-1,5,10-triazadecane trihydrochloride] gave an IC50 in data set [1] of 3.6 µg/mL. Moreover, in data set [2] (setting [4]), the MIC was 12.5 µg/mL. In addition, in data set [3], the fraction remaining at 12 h was determined as 101%, the share remaining at 24 h is 100%, the share remaining at 48 h was determined as 100% and the fraction remaining at 72 h was found to be 99.7%. Besides, in data set [3], the share remaining at 120 h amounted to 99.6% and the share remaining at 168 h was found to be 100%.

For `CC(=O)O[C@@H](CCCCNC(=N)N)CC(=O)NCC(=O)NCCCCNCCCN` [Compound 16, 10-[N--(7-guanidino-3(S)--acetoxyheptanoyl)-glycyl-1,5,10-triazadecanetrihydrochloride], the MIC in data set [2] (setting [4]) is > 100 µg/mL. In data set [3], the fraction remaining at 12 h came to 99.9%, the share remaining at 24 h is 99.5%, the share remaining at 48 h came out at 99.6% and the fraction remaining at 72 h stood at 99.2%. For the same molecule, in data set [3], the fraction remaining at 120 h amounted to 99.6% and the amount remaining at 168 h came to 99.6%.

In data set [1], `N=C(N)NCCCCCCC(=O)NC(CCO)C(=O)NCCCCNCCCN` (racemic) [Compound 18] had an IC50 of 150 µg/mL (≈ 361 µM). Further, in data set [2] (setting [4]), the MIC came out at 100 µg/mL (≈ 241 µM). For the same molecule, in data set [3], the share remaining at 12 h is 100%, the amount remaining at 24 h is 99.5%, the amount remaining at 48 h amounted to 99.7% and the fraction remaining at 72 h was 99.3%. Also, in data set [3], the fraction remaining at 120 h was 99.7% and the fraction remaining at 168 h came out at 99.5%.

`CC(C)C[C@H](NC(=O)CCCCCCNC(=N)N)C(=O)NCCCCNCCCN` [Compound 9, 10-[N--(7-guanidinoheptanoyl)-L-leucyl]-1,5,10-triazadecane trihydrochloride] gave an IC50 in data set [1] of 70 µg/mL. Further, in data set [2] (setting [4]), the MIC was > 100 µg/mL. For the same molecule, in data set [3], the amount remaining at 12 h was determined as 99.7%, the fraction remaining at 24 h came out at 99.9%, the amount remaining at 48 h worked out at 99.8% and the amount remaining at 72 h worked out at 100%. For the same molecule, in data set [3], the amount remaining at 120 h stood at 100% and the share remaining at 168 h stood at 99.9%.

With `C[C@H](NC(=O)CCCCCCNC(=N)N)C(=O)NCCCCNCCCN` [Compound 5, 10-[N--(7-guanidinoheptanoyl)-L-alanyl]-1,5,10-triazadecane trihydrochloride], half-maximal inhibition in data set [1] (IC50) was put at 37 µg/mL. In addition, the MIC in data set [2] (setting [4]) worked out at 25 µg/mL. Further, in data set [3], the fraction remaining at 12 h is 99.8%, the amount remaining at 24 h came out at 99.8%, the amount remaining at 48 h was determined as 100% and the fraction remaining at 72 h was found to be 99.6%. Further, in data set [3], the fraction remaining at 120 h came to 99% and the fraction remaining at 168 h was 99.9%.

Molecule `N=C(N)NCCCCCCC(=O)NCCC(=O)NCCCCNCCCN` [Compound 6, 10-[N--(7-guanidinoheptanoyl)-β-alanyl]-1,5,10-triazadecane trihydrochloride] yielded an IC50 in data set [1] of 0.84 µg/mL. Also, the MIC in data set [2] (setting [4]) is 25 µg/mL. In data set [3], the fraction remaining at 12 h was determined as 100%, the share remaining at 24 h was 100%, the amount remaining at 48 h came out at 99.6% and the amount remaining at 72 h turned out to be 99.6%. Also, in data set [3], the fraction remaining at 120 h worked out at 99.9% and the fraction remaining at 168 h is 100%.

As to `N=C(N)NCCCCCCC(=O)N[C@@H](CCCNC(=N)N)C(=O)NCCCCNCCCN` [Compound 12, 10-[N--(7-guanidinoheptanoyl)-L-arginyl]-1,5,10-triazadecane trihydrochloride], in data set [1], the IC50 came out at 1.5 µg/mL. For the same molecule, in data set [2] (setting [4]), the MIC is 12.5 µg/mL. In addition, in data set [3], the amount remaining at 12 h came out at 100%, the share remaining at 24 h stood at 99.4%, the fraction remaining at 48 h worked out at 99.7% and the fraction remaining at 72 h is 99.9%. In data set [3], the amount remaining at 120 h amounted to 100% and the share remaining at 168 h amounted to 99.7%.

As to `N=C(N)NCCCC[C@H](O)CC(=O)N[C@@H](CO)C(=O)NCCCCNCCCN` [Compound 3, 10-[N--(7-guanidino-3(S)--hydroxyheptanoyl)-L-seryl]-1,5,10-triazadecane trihydrochloride], the IC50 in data set [1] worked out at 0.95 µg/mL. Also, the MIC in data set [2] (setting [4]) was 6.25 µg/mL. In addition, in data set [3], the fraction remaining at 12 h is 99.3%, the share remaining at 24 h is 99.5%, the amount remaining at 48 h worked out at 100% and the share remaining at 72 h was 99.6%. Also, in data set [3], the fraction remaining at 120 h was found to be 99.7% and the share remaining at 168 h stood at 100%.

As to `N=C(N)NCCCCCCC(=O)N1CCC[C@H]1C(=O)NCCCCNCCCN` [Compound 8, 10-[N--(7-guanidinoheptanoyl)-L-prolyl]-1,5,10-triazadecane trihydrochloride], in data set [2] (setting [4]), the MIC was > 100 µg/mL. Besides, in data set [3], the amount remaining at 12 h stood at 100%, the fraction remaining at 24 h came out at 100%, the amount remaining at 48 h stood at 99.6% and the fraction remaining at 72 h turned out to be 99.8%. In data set [3], the share remaining at 120 h was 99.8% and the amount remaining at 168 h was 100%.

As to `Cl.Cl.Cl.N=C(N)NCCCCCCC(=O)N[C@@H](CCC(N)=O)C(=O)NCCCCNCCCN` [Compound 11, 10-[N--(7-guanidinoheptanoyl)-L-glutaminyl]-1,5,10-triazadecane trihydrochloride], the MIC in data set [2] is > 100 µg/mL. Further, the “Residual content (%) of the compound in an aqueous solution” value in data set [3] (12 hr) is listed as 99.5%; in data set [3] (24 hr), 99.7%; in data set [3] (48 hr), 101%; in data set [3] (72 hr), 99.5%; in data set [3] (120 hr), 100%; in data set [3] (168 hr), 99.3%.

Regarding `C[C@@H](O)[C@H](NC(=O)CCCCCCNC(=N)N)C(=O)NCCCCNCCCN` [Compound 15, 10-[N--(7-guanidinoheptanoyl)-L-threonyl]-1,5,10-triazadecane trihydrochloride], inhibition in data set [1] was half-maximal at 180 µg/mL (IC50). Besides, the MIC in data set [2] (setting [4]) was determined as 100 µg/mL. Also, in data set [3], the amount remaining at 12 h came out at 99.2%, the amount remaining at 24 h is 99.8%, the amount remaining at 48 h came out at 99.1% and the amount remaining at 72 h worked out at 100%. For the same molecule, in data set [3], the share remaining at 120 h was 99.6% and the fraction remaining at 168 h worked out at 100%.

As a reminder, the IC50 is the concentration at which inhibition is half-maximal. Higher therefore signals weaker potency. In general, MIC refers to the lowest concentration found to suppress growth.
